Where “and” joins values, the source holds several entries; their conditions need not be identical. Equal values may be shown once. Results filed as inconclusive are left out.

In the assay the test system is BDF1 mice, s.c. Lewis lung carcinoma, T/C %. Put plainly: NCI In Vivo Anticancer Drug Screen. Data for tumor model Lewis Lung Carcinoma (subcutaneous) in B6D2F1 (BDF1) mice. The essentials: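 Readout: survival or tumor size, expressed as treated (T) over vehicle control (C). Transplantable tumor implanted in mice; compound given to the treated group.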
Where [1] appears, read: endpoint: median survival time, dose: 1.0 mg/kg/injection, schedule: Q01DX009 (ip), vehicle: saline, higher = longer survival.
Setting [2] is: endpoint: median survival time, dose: 4.0 mg/kg/injection, schedule: Q01DX009 (ip), vehicle: saline, higher = longer survival.
Setting [3] is: endpoint: median survival time, dose: 12.5 mg/kg/injection, schedule: Q01DX009 (ip), vehicle: Klucel (hydroxypropylcellulose) (HPC), higher = longer survival.
[4] abbreviates: endpoint: median survival time, dose: 25.0 mg/kg/injection, schedule: Q01DX009 (ip), vehicle: Klucel (hydroxypropylcellulose) (HPC), higher = longer survival.

Regarding `N[C@@H](Cc1ccc(N(CCCl)CCCl)cc1)C(=O)O`, the T/C is, setting by setting: (endpoint: mean tumor weight, dose: 0.5 mg/kg/injection, schedule: Q01DX011 (ip), vehicle: saline, higher = larger tumour) 76 % of control; (endpoint: mean tumor weight, dose: 0.8 mg/kg/injection, schedule: Q01DX011 (ip), vehicle: carboxymethylcellulose (CMC), higher = larger tumour) 71 % of control; (endpoint: mean tumor weight, dose: 1.0 mg/kg/injection, schedule: Q01DX011 (ip), vehicle: saline, higher = larger tumour) 46 % of control; (endpoint: mean tumor weight, dose: 1.6 mg/kg/injection, schedule: Q01DX011 (ip), vehicle: carboxymethylcellulose (CMC), higher = larger tumour) 70 % of control; (endpoint: mean tumor weight, dose: 2.0 mg/kg/injection, schedule: Q01DX011 (ip), vehicle: saline, higher = larger tumour) 46 % of control; (endpoint: mean tumor weight, dose: 2.4 mg/kg/injection, schedule: Q01DX011 (ip), vehicle: carboxymethylcellulose (CMC), higher = larger tumour) 68 % of control and 69 % of control. The T/C runs as follows: (endpoint: mean tumor weight, dose: 3.6 mg/kg/injection, schedule: Q01DX011 (ip), vehicle: carboxymethylcellulose (CMC), higher = larger tumour) 45 % of control; (endpoint: mean tumor weight, dose: 4.0 mg/kg/injection, schedule: Q01DX011 (ip), vehicle: saline, higher = larger tumour) 21 % of control; (endpoint: mean tumor weight, dose: 5.4 mg/kg/injection, schedule: Q01DX011 (ip), vehicle: carboxymethylcellulose (CMC), higher = larger tumour) 20 % of control; (endpoint: median survival time, dose: 0.04 mg/kg/injection, schedule: Q01DX009 (ip), vehicle: saline, higher = longer survival) 115 % of control; (endpoint: median survival time, dose: 0.08 mg/kg/injection, schedule: Q01DX009 (ip), vehicle: saline, higher = longer survival) 103 % of control; (endpoint: median survival time, dose: 0.31 mg/kg/injection, schedule: Q01DX009 (ip), vehicle: saline, higher = longer survival) 107 % of control. Besides, the T/C (endpoint: median survival time, dose: 0.5 mg/kg/injection, schedule: Q01DX009 (ip), vehicle: saline with Tween-80, higher = longer survival) was 101 % of control; the T/C (endpoint: median survival time, dose: 0.5 mg/kg/injection, schedule: Q01DX009 (ip), vehicle: saline, higher = longer survival) is 104 % of control and 122 % of control; the T/C (endpoint: median survival time, dose: 0.75 mg/kg/injection, schedule: Q01DX009 (ip), vehicle: saline, higher = longer survival) was 102 % of control; the T/C (endpoint: median survival time, dose: 1.0 mg/kg/injection, schedule: Q01DX009 (ip), vehicle: Klucel (hydroxypropylcellulose) (HPC), higher = longer survival) is 107 % of control; the T/C (endpoint: median survival time, dose: 1.0 mg/kg/injection, schedule: Q01DX009 (ip), vehicle: saline with Tween-80, higher = longer survival) was 108 % of control; the T/C under setting [1] is 107 % of control. Besides, the T/C was 93 % of control (endpoint: median survival time, dose: 1.5 mg/kg/injection, schedule: Q01DX009 (ip), vehicle: saline, higher = longer survival); 106 % of control (endpoint: median survival time, dose: 2.0 mg/kg/injection, schedule: Q01DX001 (ip), vehicle: saline, higher = longer survival); 89 % of control (endpoint: median survival time, dose: 2.0 mg/kg/injection, schedule: Q01DX009 (ip), vehicle: Klucel (hydroxypropylcellulose) (HPC), higher = longer survival); 97 % of control (endpoint: median survival time, dose: 2.0 mg/kg/injection, schedule: Q01DX009 (ip), vehicle: saline with Tween-80, higher = longer survival); 100 % of control (endpoint: median survival time, dose: 2.5 mg/kg/injection, schedule: Q01DX001 (ip), vehicle: saline, higher = longer survival); 90 % of control (endpoint: median survival time, dose: 2.5 mg/kg/injection, schedule: Q01DX001 (ip), vehicle: water, higher = longer survival). Also, the T/C reads like this: (endpoint: median survival time, dose: 3.0 mg/kg/injection, schedule: Q01DX009 (ip), vehicle: saline, higher = longer survival) 116 % of control; (endpoint: median survival time, dose: 4.0 mg/kg/injection, schedule: Q01DX001 (ip), vehicle: saline, higher = longer survival) 100 % of control; (endpoint: median survival time, dose: 4.0 mg/kg/injection, schedule: Q01DX009 (ip), vehicle: Klucel (hydroxypropylcellulose) (HPC), higher = longer survival) 104 % of control; under setting [2], 100 % of control and 123 % of control; (endpoint: median survival time, dose: 4.0 mg/kg/injection, schedule: Q04DX003 (ip), vehicle: saline, higher = longer survival) 119 % of control; (endpoint: median survival time, dose: 5.0 mg/kg/injection, schedule: Q01DX001 (ip), vehicle: water, higher = longer survival) 109 % of control. Further, the T/C reads like this: (endpoint: median survival time, dose: 8.0 mg/kg/injection, schedule: Q01DX001 (ip), vehicle: saline, higher = longer survival) 112 % of control; (endpoint: median survival time, dose: 8.0 mg/kg/injection, schedule: Q01DX009 (ip), vehicle: saline, higher = longer survival) 86 % of control; (endpoint: median survival time, dose: 8.0 mg/kg/injection, schedule: Q04DX003 (ip), vehicle: saline, higher = longer survival) 107 % of control; (endpoint: median survival time, dose: 10.0 mg/kg/injection, schedule: Q01DX001 (ip), vehicle: saline, higher = longer survival) 100 % of control; (endpoint: median survival time, dose: 10.0 mg/kg/injection, schedule: Q01DX001 (ip), vehicle: water, higher = longer survival) 104 % of control; (endpoint: median tumor weight (est.), dose: 6.3 mg/kg/injection, schedule: Q01DX001 (ip), vehicle: carboxymethylcellulose (CMC), higher = larger tumour) 41 % of control. The T/C (endpoint: median tumor weight (est.), dose: 13.0 mg/kg/injection, schedule: Q01DX001 (ip), vehicle: carboxymethylcellulose (CMC), higher = larger tumour) was 39 % of control.

`CN(C)C=Nc1ccc2c3c(cccc13)CC2`: the T/C runs as follows: (endpoint: median survival time, dose: 6.25 mg/kg/injection, schedule: Q01DX009 (ip), vehicle: Klucel (hydroxypropylcellulose) (HPC), higher = longer survival) 108 % of control; under setting [3], 107 % of control; under setting [4], 122 % of control.

As to `NCCCNCCSP(=O)(O)O`, the T/C was 93 % of control and 100 % of control (endpoint: median survival time, dose: 300.0 mg/kg/injection, schedule: Q01DX001 (ip), vehicle: saline, higher = longer survival); 77 % of control and 78 % of control (endpoint: median survival time, dose: 500.0 mg/kg/injection, schedule: Q01DX001 (ip), vehicle: saline, higher = longer survival).

For `O=[N+]([O-])c1cccc([N+](=O)[O-])c1Cl`, the T/C (endpoint: mean tumor weight, dose: 37.0 mg/kg/injection, schedule: Q01DX011 (ip), vehicle: other, higher = larger tumour) is 116 % of control and the T/C (endpoint: mean tumor weight, dose: 55.0 mg/kg/injection, schedule: Q01DX011 (ip), vehicle: other, higher = larger tumour) is 89 % of control.

Regarding `Cc1ccc2nc(-c3ccc(N=Cc4ccccc4O)cc3)sc2c1`, under “endpoint: median survival time, dose: 200.0 mg/kg/injection, schedule: Q01DX009 (ip), vehicle: olive oil, sesame oil, peanut oil, higher = longer survival”, the T/C was 87 % of control.

Consider `CC1CC(C)(O)C2C3(C)CCCC2(COC3=O)C12CCC1(CCOC1=O)O2` (stereo not drawn), for which the T/C is, setting by setting: (endpoint: median survival time, dose: 2.5 mg/kg/injection, schedule: Q01DX009 (ip), vehicle: saline with Tween-80, higher = longer survival) 109 % of control; (endpoint: median survival time, dose: 5.0 mg/kg/injection, schedule: Q01DX009 (ip), vehicle: saline with Tween-80, higher = longer survival) 108 % of control; (endpoint: median survival time, dose: 10.0 mg/kg/injection, schedule: Q01DX009 (ip), vehicle: saline with Tween-80, higher = longer survival) 100 % of control.

As to `CCCCCCCCCCCC[N+](C)(C)Cc1ccccc1`, the T/C (endpoint: median survival time, dose: 0.12 mg/kg/injection, schedule: Q01DX009 (ip), vehicle: saline, higher = longer survival) was 111 % of control; the T/C (endpoint: median survival time, dose: 0.25 mg/kg/injection, schedule: Q01DX009 (ip), vehicle: saline, higher = longer survival) is 94 % of control; the T/C under setting [1] is 97 % of control; the T/C (endpoint: median survival time, dose: 2.0 mg/kg/injection, schedule: Q01DX009 (ip), vehicle: saline, higher = longer survival) is 97 % of control; the T/C under setting [2] was 91 % of control; the T/C (endpoint: median survival time, dose: 125.0 micrograms/kg/injection, schedule: Q01DX009 (ip), vehicle: saline, higher = longer survival) is 107 % of control. Besides, the T/C runs as follows: (endpoint: median survival time, dose: 250.0 micrograms/kg/injection, schedule: Q01DX009 (ip), vehicle: saline, higher = longer survival) 93 % of control; (endpoint: median survival time, dose: 1000.0 micrograms/kg/injection, schedule: Q01DX009 (ip), vehicle: saline, higher = longer survival) 103 % of control; (endpoint: median survival time, dose: 2000.0 micrograms/kg/injection, schedule: Q01DX009 (ip), vehicle: saline, higher = longer survival) 109 % of control; (endpoint: median survival time, dose: 4000.0 micrograms/kg/injection, schedule: Q01DX009 (ip), vehicle: saline, higher = longer survival) 107 % of control; (endpoint: median survival time, dose: 8000.0 micrograms/kg/injection, schedule: Q01DX009 (ip), vehicle: saline, higher = longer survival) 96 % of control.

Consider `COc1cc2c(cc1Oc1c(Oc3c(O)c(OC)cc4c3C(CC(C)C)N(C)CC4)c(OC)cc3c1C(CC(C)C)N(C)CC3)C(CC(C)C)N(C)CC2` (stereo not drawn), for which the T/C is, setting by setting: under setting [3], 92 % of control; under setting [4], 98 % of control; (endpoint: median survival time, dose: 50.0 mg/kg/injection, schedule: Q01DX009 (ip), vehicle: Klucel (hydroxypropylcellulose) (HPC), higher = longer survival) 88 % of control.

On to `O=C(N/N=C/c1ccc(O)cc1O)c1cccnc1`, for which the T/C was 91 % of control (endpoint: median survival time, dose: 6.25 mg/kg/injection, schedule: Q01DX009 (ip), vehicle: olive oil, sesame oil, peanut oil, higher = longer survival) and 101 % of control (endpoint: median survival time, dose: 25.0 mg/kg/injection, schedule: Q01DX009 (ip), vehicle: olive oil, sesame oil, peanut oil, higher = longer survival).

With `C[C@]12CCC(=O)C=C1CC[C@@H]1[C@@H]2[C@@H](O)C[C@@]2(C)[C@H]1CC[C@]2(O)C(=O)CO`, the T/C is 98 % of control (endpoint: median survival time, dose: 40.0 mg/kg/injection, schedule: Q02DX009 (ip), vehicle: Klucel (hydroxypropylcellulose) (HPC), higher = longer survival); 96 % of control (endpoint: median survival time, dose: 80.0 mg/kg/injection, schedule: Q02DX009 (ip), vehicle: Klucel (hydroxypropylcellulose) (HPC), higher = longer survival); 97 % of control (endpoint: median survival time, dose: 160.0 mg/kg/injection, schedule: Q02DX009 (ip), vehicle: Klucel (hydroxypropylcellulose) (HPC), higher = longer survival); 88 % of control (endpoint: median survival time, dose: 640.0 mg/kg/injection, schedule: Q02DX009 (ip), vehicle: Klucel (hydroxypropylcellulose) (HPC), higher = longer survival).

These data come from PubChem BioAssay AID270 (DTP/NCI, 2004).
